Patent publication US6262051A, “Fungicidal methoximinomethyldioxazines” (Bayer Aktiengesellschaft, priority 1997, dated 2001)
Where two headings read alike, the source gives them in different places.

Assays:
HPLC logP = assay type: physicochemical
Plasmopara viticola = assay: Example D: Plasmopara test (grapevine)/protective; assay type: in vivo; conditions: protective, 6 days after inoculation, vs untreated control; for pest or weed control at 100 g/ha: Plasmopara viticola, 144 h, read-out: Efficacy in %; for Efficacy in %: 100 g/ha
Protocol: Plasmopara test (grapevine)/protective Solvent: 47 parts by weight of acetone Emulsifier: 3 parts by weight of alkylaryl polyglycol ether To produce a suitable preparation of active compound, 1 part by weight of active compound is mixed with the stated amount of solvent and emulsifier, and the concentrate is diluted with water to the desired concentration. To test for protective activity, young plants are sprayed with the preparation of active compound at the stated application rate. […]

Sphaerotheca fuliginea = assay: Example E: Sphaerotheca test (cucumber)/protective; assay type: in vivo; conditions: protective, 100 g/ha, 10 days after inoculation, vs untreated control
Protocol: Sphaerotheca test (cucumber)/protective Solvent: 47 parts by weight of acetone Emulsifier: 3 parts by weight of alkylaryl polyglycol ether To produce a suitable preparation of active compound, 1 part by weight of active compound is mixed with the stated amount of solvent and emulsifier, and the concentrate is diluted with water to the desired concentration. To test for protective activity, young plants are sprayed with the preparation of active compound at the stated application rate. After the spray coating is dried on, the plants are inoculated with an aqueous spore suspension of Sphaerotheca fuliginea.

Pyricularia oryzae = assay type: in vivo; conditions: rice, protective; 750 g/ha; 4 days after inoculation; vs untreated control
[1] = test system: Erysiphe graminis f.sp. hordei; assay: Example B: Erysiphe test (barley)/curative; assay type: in vivo; conditions: curative (sprayed 48 hours after inoculation), 250 g/ha, 7 days after inoculation, vs untreated control
Protocol: Erysiphe test (barley)/curative Solvent: 10 parts by weight of N-methyl-pyrrolidone Emulsifier: 0.6 part by weight of alkylaryl polyglycol ether To produce a suitable preparation of active compound, 1 part by weight of active compound is mixed with the stated amount of solvent and emulsifier, and the concentrate is diluted with water to the desired concentration. To test for curative activity, young plants are dusted with spores of Erysiphe graminis f.sp. hordei. 48 hours after the inoculation, the plants are sprayed with the preparation of active compound at the stated application rate. The plants are placed in a greenhouse at a temperature of approximately 20° C. and a relative atmospheric humidity of approximately 80% to promote the development of mildew postures.

SMILES	chromatographic logP (HPLC logP; Table 1)	further results
CON=C(C1=NOCCO1)c1ccccc1Oc1nccc(OC(CF)CF)n1 [Example 1, (5,6-dihydro-[1,4,2]dioxazin-3-yl)-{2-[4-(2-fluoro-1-fluoromethyl-ethoxy)-pyrimidin-2-yloxy]-phenyl}-methanone O-methyl oxime]	–	chromatographic logP (HPLC logP): 2.2; pest or weed control at 100 g/ha (Plasmopara viticola): ≤ 100%
CON=C(C1=NOCCO1)c1ccccc1Oc1nccc(OCC(Cl)(Cl)Cl)n1 [Example 2, (5,6-dihydro-[1,4,2]dioxazin-3-yl)-{2-[4-(2,2,2-trichloroethoxy)-pyrimidine-2-yloxy]-phenyl}-methanone O-methyl oxime]	–	chromatographic logP (HPLC logP): 3.1; pest or weed control at 100 g/ha (Plasmopara viticola): ≤ 100%; Efficacy in % (Sphaerotheca fuliginea): more than 90%
CON=C(C1=NOCCO1)c1ccccc1Oc1nccc(OC(C)C(F)(F)F)n1 (stereo not drawn) [Example 4]	2.9	–
CCOc1ccnc(Oc2ccccc2C(=NOC)C2=NOCCO2)n1 [Example 5]	2.2	Efficacy in % (Pyricularia oryzae): at least 70%
CCCOc1ccnc(Oc2ccccc2C(=NOC)C2=NOCCO2)n1 [Example 6]	2.5	Efficacy in % [1]: 100%; Efficacy in % (Sphaerotheca fuliginea): more than 90%; Efficacy in % (Pyricularia oryzae): at least 70%
CON=C(C1=NOCCO1)c1ccccc1Oc1nccc(OC(C)C)n1 [Example 7]	2.5	pest or weed control at 100 g/ha (Plasmopara viticola): ≤ 100%
CON=C(C1=NOCCO1)c1ccccc1Oc1nccc(OCC(F)(F)C(F)(F)F)n1 [Example 8]	3.1	pest or weed control at 100 g/ha (Plasmopara viticola): ≤ 100%; Efficacy in % (Sphaerotheca fuliginea): more than 90%
CCCCOc1ccnc(Oc2ccccc2C(=NOC)C2=NOCCO2)n1 [Example 9]	3	pest or weed control at 100 g/ha (Plasmopara viticola): ≤ 100%
CON=C(C1=NOCCO1)c1ccccc1Oc1nccc(OCC(Cl)Cl)n1 [Example 10]	2.7	pest or weed control at 100 g/ha (Plasmopara viticola): ≤ 100%
CON=C(C1=NOCCO1)c1ccccc1Oc1nccc(OCC(Br)(Br)Br)n1 [Example 11]	3.2	pest or weed control at 100 g/ha (Plasmopara viticola): ≤ 100%
CON=C(C1=NOCCO1)c1ccccc1Oc1nccc(OCc2ccccc2)n1 [Example 12]	2.9	pest or weed control at 100 g/ha (Plasmopara viticola): ≤ 100%
CCCCCOc1ccnc(Oc2ccccc2C(=NOC)C2=NOCCO2)n1 [Example 14]	3.3	pest or weed control at 100 g/ha (Plasmopara viticola): ≤ 100%
CON=C(C1=NOCCO1)c1ccccc1Oc1nccc(OCc2ccccc2F)n1 [Example 15]	2.9	–
CON=C(C1=NOCCO1)c1ccccc1Oc1nccc(OCc2ccc(C)cc2)n1 [Example 16]	3.2	–
CON=C(C1=NOCCO1)c1ccccc1Oc1nccc(OCCc2ccccc2F)n1 [Example 17]	3.2	–
CCCCCCCOc1ccnc(Oc2ccccc2C(=NOC)C2=NOCCO2)n1 [Example 18]	4.2	–
CON=C(C1=NOCCO1)c1ccccc1Oc1nccc(OCc2cccc(F)c2)n1 [Example 19]	3	–
CON=C(C1=NOCCO1)c1ccccc1Oc1nccc(OCCc2ccccc2C(F)(F)F)n1 [Example 20]	3.6	–
CON=C(C1=NOCCO1)c1ccccc1Oc1nccc(OC(C)c2ccccc2)n1 (stereo not drawn) [Example 21]	3.1	–
CON=C(C1=NOCCO1)c1ccccc1Oc1nccc(OCc2ccc(Cl)cc2)n1 [Example 22]	3.3	–
CCCCCCCCOc1ccnc(Oc2ccccc2C(=NOC)C2=NOCCO2)n1 [Example 23]	4.7	–

SMILES	chromatographic logP (HPLC logP; Table 1)	further results
CON=C(C1=NOCCO1)c1ccccc1Oc1nccc(OC(C)c2ccccc2Cl)n1 (stereo not drawn) [Example 24]	3.4	–
CON=C(C1=NOCCO1)c1ccccc1Oc1nccc(OCCc2ccccc2)n1 [Example 25]	3.3	–
CON=C(C1=NOCCO1)c1ccccc1Oc1nccc(OCCc2ccc(Cl)cc2)n1 [Example 26]	3.5	–
CON=C(C1=NOCCO1)c1ccccc1Oc1nccc(OC2CCCCC2)n1 [Example 27]	3.3	–
CCC(C)Oc1ccnc(Oc2ccccc2C(=NOC)C2=NOCCO2)n1 (stereo not drawn) [Example 29]	2.9	–
CCCCCCCCCOc1ccnc(Oc2ccccc2C(=NOC)C2=NOCCO2)n1 [Example 35]	5.1	–
CCCCCCCCCCOc1ccnc(Oc2ccccc2C(=NOC)C2=NOCCO2)n1 [Example 36]	5.6	–
CON=C(C1=NOCCO1)c1ccccc1Oc1nccc(OCCF)n1 [Example 38]	2	–
CON=C(C1=NOCCO1)c1ccccc1Oc1nccc(OC(C(F)(F)F)C(F)(F)F)n1 [Example 42]	3.3	–
C=CCOc1ccnc(Oc2ccccc2C(=NOC)C2=NOCCO2)n1 [Example 48]	2.4	–
CON=C(C1=NOCCO1)c1ccccc1Oc1nccc(OC2CCCC2)n1 [Example 54]	3	–
CON=C(C1=NOCCO1)c1ccccc1Oc1nccc(OCC2CCCC2)n1 [Example 58]	3.4	–
CON=C(C1=NOCCO1)c1ccccc1Oc1nccc(OCC2CC2)n1 [Example 59]	2.5	–
CON=C(C1=NOCCO1)c1ccccc1Oc1nccc(OCc2ccc(C)c(Cl)c2)n1 [Example 86]	3.7	–
CON=C(C1=NOCCO1)c1ccccc1Oc1nccc(OCCc2ccc(OC)cc2)n1 [Example 98]	3	–
CON=C(C1=NOCCO1)c1ccccc1Oc1nccc(OCCCc2ccccc2)n1 [Example 101]	3.4	–
CON=C(C1=NOCCO1)c1ccccc1Oc1nccc(SC)n1 [Example 108]	2.2	–
CON=C(C1=NOCCO1)c1ccccc1Oc1nccc(SCc2ccccc2)n1 [Example 120]	3.14	–
CON=C(C1=NOCCO1)c1ccccc1Oc1nccc(NCc2ccccc2)n1 [Example 136]	1.6	–
CON=C(C1=NOCCO1)c1ccccc1Oc1nccc(NCCc2ccccc2)n1 [Example 139]	2.4	–
CON=C(C1=NOCCO1)c1ccccc1Oc1nccc(N(C)Cc2ccccc2)n1 [Example 152]	1.84	–

SMILES	chromatographic logP (HPLC logP; Table 1)	further results
CON=C(C1=NOCCO1)c1ccccc1Oc1nccc(OCc2ccc(OC)cc2)n1 [Example 156]	2.8	–
CON=C(C1=NOCCO1)c1ccccc1Oc1nccc(OCC(F)(F)C(F)F)n1 [Example 157]	2.6	–
CON=C(C1=NOCCO1)c1ccccc1Oc1nccc(OCCC(F)(F)F)n1 [Example 158]	2.6	–
CON=C(C1=NOCCO1)c1ccccc1Oc1nccc(OCCCCCc2ccccc2)n1 [Example 159]	4.1	–
C#CCOc1ccnc(Oc2ccccc2C(=NOC)C2=NOCCO2)n1 [Example 160]	2.1	–
CON=C(C1=NOCCO1)c1ccccc1Oc1nccc(OCC=Cc2ccccc2)n1 [Example 161]	3.3	–
CON=C(C1=NOCCO1)c1ccccc1Oc1nccc(OCC2C(C=C(C)C)C2(C)C)n1 (stereo not drawn) [Example 162]	4.3	–
CCCCCCCCCCCCCCCCOc1ccnc(Oc2ccccc2C(=NOC)C2=NOCCO2)n1 [Example 163]	> 7.4	–
C=CC(C)Oc1ccnc(Oc2ccccc2C(=NOC)C2=NOCCO2)n1 (stereo not drawn) [Example 164]	2.7	–
C/C=C/C=C/COc1ccnc(Oc2ccccc2C(=NOC)C2=NOCCO2)n1 [Example 165]	3.2	–
C/C=C\COc1ccnc(Oc2ccccc2C(=NOC)C2=NOCCO2)n1 [Example 166]	2.7	–
CON=C(C1=NOCCO1)c1ccccc1Oc1nccc(OCc2ccc(SC)cc2)n1 [Example 168]	2.1	–
C=C(Br)COc1ccnc(Oc2ccccc2C(=NOC)C2=NOCCO2)n1 [Example 169]	2.7	–
CON=C(C1=NOCCO1)c1ccccc1Oc1nccc(NC(C)c2ccccc2)n1 (stereo not drawn) [Example 171]	1.8	–
CON=C(C1=NOCCO1)c1ccccc1Oc1nccc(OCC2(C)CC2(Cl)Cl)n1 (stereo not drawn) [Example 172]	3.3	–
CON=C(C1=NOCCO1)c1ccccc1Oc1nccc(Cl)n1 [II-1, [2-(4-chloro-pyrimidin-2-yloxy)-phenyl]-(5,6-dihydro-[1,4,2]dioxazin-3-yl)-methanone O-methyl oxime]	–	chromatographic logP (HPLC logP): 2
CON=C(C1=NOCCO1)c1ccccc1Oc1nccc(OCC(Br)(Br)Br)n1 [drawing 37]	–	Efficacy in % (Plasmopara viticola): 100%
CON=C(C1=NOCCO1)c1ccccc1Oc1nccc(OCc2ccccc2)n1 [drawing 38]	–	Efficacy in % (Plasmopara viticola): 100%
CCCCCCOc1ccnc(Oc2ccccc2C(=NOC)C2=NOCCO2)n1 [drawing 39]	–	Efficacy in % (Plasmopara viticola): 100%
CCCCCOc1ccnc(Oc2ccccc2C(=NOC)C2=NOCCO2)n1 [drawing 40]	–	Efficacy in % (Plasmopara viticola): 99%
CON=C(C1=NOCCO1)c1ccccc1Oc1nccc(OCC(F)(F)C(F)(F)F)n1 [drawing 43]	–	Efficacy in % (Sphaerotheca fuliginea): 92%
